Experimental data reported in article PMC9374667 (Communications Biology, 2022).
Values joined by “and” are separate entries in the source; they are usually repeats but may differ in a detail not shown here. Equal entries are not always repeated.

System: db/db mice
Assay: Indirect calorimetry (CLAMS): VO2, VCO2, RER
Assay type: in vivo
Set-up: Figure 3g (VCO2), individual mice 1-6: unit not given here
Conditions: for Figure 3g (VCO2), individual mice 1-6 / Figure 3e (VO2), individual mice 1-6: BBR 150mg/kg; for Figure 3e (VO2), individual mice 1-6: in mL/kg/h (unit assumed); for Average RER (VCO2/VO2) / Average VCO2 / Average VO2: 150 mg/kg for 5 weeks, individual mice, 150 mg/kg
Experimental: At week 5 of treatment, basal metabolic parameters of mice were measured using the Comprehensive Lab Animal Monitoring System (CLAMS, Columbus Instruments, Columbus, OH). […] The number of times the infrared beams were broken along the X- or Y-axis was used to measure the dynamic activity of mice. The respiratory exchange rate (RER) was calculated using classical Lusk theory and equations RER = VCO2/VO2.

SMILES: COc1ccc2cc3[n+](cc2c1OC)CCc1cc2c(cc1-3)OCO2 [BBR, Berberine chloride dihydrate]
- Figure 3g (VCO2), individual mice 1-6 (TIME 09:00:00): 2187 and 1798.5 and 1382 and 1550.5 and 1282 and 1729
- Figure 3e (VO2), individual mice 1-6 (TIME 09:00:00): 2463.5 and 1992.5 and 1618.5 and 1830.5 and 1604 and 1996.5
- Figure 3g (VCO2), individual mice 1-6 (TIME 10:00:00): 2025.5 and 1306.5 and 1293 and 1507.5 and 1152.5 and 1351.5
- Figure 3e (VO2), individual mice 1-6 (TIME 10:00:00): 2239.5 and 1396.5 and 1525.5 and 1818.5 and 1443 and 1558.5
- Figure 3g (VCO2), individual mice 1-6 (TIME 11:00:00): 1508.5 and 1801 and 1600.5 and 1450.5 and 1810.5 and 2131.5
- Figure 3e (VO2), individual mice 1-6 (TIME 11:00:00): 1686.5 and 2034 and 1941 and 1727 and 2185.5 and 2486.5
- Figure 3g (VCO2), individual mice 1-6 (TIME 12:00:00): 1560 and 1682.5 and 1287 and 1655.5 and 1234 and 1351
- Figure 3e (VO2), individual mice 1-6 (TIME 12:00:00): 1799.5 and 1905 and 1604.5 and 1986.5 and 1472.5 and 1528
- Figure 3g (VCO2), individual mice 1-6 (TIME 13:00:00): 1425.5 and 1753 and 2069 and 1636 and 1111.5 and 1447.5
- Figure 3e (VO2), individual mice 1-6 (TIME 13:00:00): 1585 and 1943.5 and 2523.5 and 1919 and 1415 and 1703
- Figure 3g (VCO2), individual mice 1-6 (TIME 14:00:00): 1628.5 and 1269.5 and 1997.5 and 1334 and 1382 and 1265.5
- Figure 3e (VO2), individual mice 1-6 (TIME 14:00:00): 1785 and 1394 and 2318.5 and 1559 and 1696.5 and 1512.5
- Figure 3g (VCO2), individual mice 1-6 (TIME 15:00:00): 1579.5 and 1285 and 1642.5 and 1147.5 and 2064.5 and 1675
- Figure 3e (VO2), individual mice 1-6 (TIME 15:00:00): 1826 and 1499.5 and 1948.5 and 1433.5 and 2445.5 and 1943
- Figure 3g (VCO2), individual mice 1-6 (TIME 16:00:00): 1579 and 1741 and 1899.5 and 1326 and 1630.5 and 1658.5
- Figure 3e (VO2), individual mice 1-6 (TIME 16:00:00): 1816.5 and 2044.5 and 2249 and 1622.5 and 1845.5 and 1914
- Figure 3g (VCO2), individual mice 1-6 (TIME 17:00:00): 1290.5 and 1905.5 and 1610 and 1666.5 and 1315 and 1412.5
- Figure 3e (VO2), individual mice 1-6 (TIME 17:00:00): 1507 and 2598 and 1769 and 2019 and 1551.5 and 1596.5
- Figure 3g (VCO2), individual mice 1-6 (TIME 18:00:00): 1292.5 and 1365.5 and 1937 and 1461.5 and 1206 and 1444
- Figure 3e (VO2), individual mice 1-6 (TIME 18:00:00): 1496 and 1510 and 2285 and 1793 and 1482.5 and 1701
- Figure 3g (VCO2), individual mice 1-6 (TIME 19:00:00): 1404 and 1310 and 1770.5 and 1481 and 1876 and 2094
- Figure 3e (VO2), individual mice 1-6 (TIME 19:00:00): 1643.5 and 1465 and 2034 and 1838.5 and 2235 and 2481.5
- Figure 3g (VCO2), individual mice 1-6 (TIME 20:00:00): 1181 and 2034.5 and 1933 and 1597 and 1575 and 1493.5
- Figure 3e (VO2), individual mice 1-6 (TIME 20:00:00): 1393.5 and 2338.5 and 2268.5 and 1885.5 and 1848 and 1679
- Figure 3g (VCO2), individual mice 1-6 (TIME 21:00:00): 1529.5 and 1566 and 1830 and 1676.5 and 1825.5 and 1630.5
- Figure 3e (VO2), individual mice 1-6 (TIME 21:00:00): 1863.5 and 1748.5 and 2189 and 2027 and 2201.5 and 1886
- Figure 3g (VCO2), individual mice 1-6 (TIME 22:00:00): 1627 and 2225 and 1746.5 and 1760.5 and 1520.5 and 2058.5
- Figure 3e (VO2), individual mice 1-6 (TIME 22:00:00): 1913.5 and 2540.5 and 2028.5 and 2082.5 and 1881 and 2440
- Figure 3g (VCO2), individual mice 1-6 (TIME 23:00:00): 1717.5 and 1505 and 2209 and 1848.5 and 1914.5 and 1764
- Figure 3e (VO2), individual mice 1-6 (TIME 23:00:00): 1949 and 1704 and 2610 and 2181 and 2319.5 and 2010
- Figure 3g (VCO2), individual mice 1-6 (TIME 1900-01-01): 2124.5 and 2214 and 2120 and 1937 and 2080.5 and 2184
- Figure 3g (VCO2), individual mice 1-6 (TIME 1900-01-01 01:00:00): 2199 and 2168 and 2133.5 and 2137.5
- Figure 3e (VO2), individual mice 1-6 (TIME 1900-01-01 01:00:00): 2537.5 and 2453.5 and 2566.5 and 2667.5
- Figure 3e (VO2), individual mice 1-6 (TIME 1900-01-01): 2407.5 and 2513.5 and 2566 and 2292.5 and 2527.5 and 2541
- Average RER (VCO2/VO2) (db/db mice, day (light)): 0.8616 and 0.8798 and 0.8875 and 0.8398 and 0.8298 and 0.8335
- Average VCO2 (db/db mice, day (light)): 27.0427 mL/min/kg and 26.0915 mL/min/kg and 26.8287 mL/min/kg and 27.4625 mL/min/kg and 24.4077 mL/min/kg and 25.0565 mL/min/kg
- Average VO2 (db/db mice, day (light)): 31.4158 mL/min/kg and 29.6362 mL/min/kg and 30.277 mL/min/kg and 32.69 mL/min/kg and 29.3548 mL/min/kg and 30.0223 mL/min/kg
- Average RER (VCO2/VO2) (db/db mice, night (dark)): 0.8596 and 0.865 and 0.8782 and 0.8452 and 0.8334 and 0.8299
- Average VCO2 (db/db mice, night (dark)): 30.8835 mL/min/kg and 33.2053 mL/min/kg and 32.3175 mL/min/kg and 33.4173 mL/min/kg and 30.4887 mL/min/kg and 29.875 mL/min/kg
- Average VO2 (db/db mice, night (dark)): 35.933 mL/min/kg and 38.3562 mL/min/kg and 36.82 mL/min/kg and 39.5103 mL/min/kg and 36.573 mL/min/kg and 36.013 mL/min/kg
- Oxygen consumption (VO2) and carbon dioxide elimination (VCO2) levels (db/db mice, light-dark cycle, 5 weeks of treatment, vs vehicle): significantly higher than those in the vehicle-treated group
